For 1 compound, Ki results are on record in BindingDB's records for doi:10.1021/jm701519h (Cns Biological Research, 2008).

The test has as its target Cannabinoid receptor 2 (Homo sapiens, UniProt P34972).

Cannabinoid receptor 2, sequence (P34972 whole entry): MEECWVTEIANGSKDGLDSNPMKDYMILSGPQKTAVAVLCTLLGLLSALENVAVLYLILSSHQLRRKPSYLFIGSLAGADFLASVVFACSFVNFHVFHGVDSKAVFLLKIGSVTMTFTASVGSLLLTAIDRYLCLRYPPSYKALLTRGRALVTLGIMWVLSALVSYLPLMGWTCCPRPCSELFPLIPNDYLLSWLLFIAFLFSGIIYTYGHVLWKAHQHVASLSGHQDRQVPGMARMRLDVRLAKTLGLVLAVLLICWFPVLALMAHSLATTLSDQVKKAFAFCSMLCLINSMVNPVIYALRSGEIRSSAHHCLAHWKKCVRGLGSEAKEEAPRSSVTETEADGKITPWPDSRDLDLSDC

Regarding `O=C1C(CCC(O)c2ccc(F)cc2)C(c2ccc(O)cc2)N1c1ccc(F)cc1` (stereo unspecified) [CAS_44450418], the affinity corresponds to a Ki of 1.82 µM.
